22 molecules from patent US20090247559A1 (Exelixis, Inc., priority 2007, published 2009) can be followed below.

The target in one test is CK2 (Homo sapiens, UniProt P68400). Briefly: CK2 inhibition, biochemical chemiluminescence holoenzyme assay (Kinase Glo, IC50 determination). Particulars: Table 1 activity class; symbol given only if active; read-out: CK2 IC50 (Activity C). On the procedure:
Characterization of CK2 Inhibition in a Biochemical Chemiluminesence Assay (IC50 Determination):
The IC50 evaluation of compounds against CK2 was performed in a Chemiluminesence Holoenzyme assay utilizing a Greiner 384-well white medium binding white plate format. […] The assay procedure involves the compound dilution scheme followed by addition of 10 μL of the substrate twice, followed by 10 μL twice of the respective enzyme or buffer to the designated well plates and subsequent pre-incubation of the compounds. Following an incubation period of 150 minutes at ambient temperature (24-27° C.), 10 μL of Kinase Glo (Promega) was added. The luminescence was measured following a Luminescence Protocol on a Victor plate reader.
(Kinase-Glo measures the ATP left after a reaction by luminescence.)

Test [1] concerns the target PIM (PIM-1, PIM-2, and/or PIM-3). The test can be described thus: PIM-1, PIM-2 and PIM-3 inhibition, biochemical chemiluminescence assays (Kinase Glo, IC50 determination). The note with it: Table 1 activity class; PIM refers to PIM-1, PIM-2, and/or PIM-3; read-out: PIM IC50 (Activity B).

CK2, sequence (P68400 whole entry): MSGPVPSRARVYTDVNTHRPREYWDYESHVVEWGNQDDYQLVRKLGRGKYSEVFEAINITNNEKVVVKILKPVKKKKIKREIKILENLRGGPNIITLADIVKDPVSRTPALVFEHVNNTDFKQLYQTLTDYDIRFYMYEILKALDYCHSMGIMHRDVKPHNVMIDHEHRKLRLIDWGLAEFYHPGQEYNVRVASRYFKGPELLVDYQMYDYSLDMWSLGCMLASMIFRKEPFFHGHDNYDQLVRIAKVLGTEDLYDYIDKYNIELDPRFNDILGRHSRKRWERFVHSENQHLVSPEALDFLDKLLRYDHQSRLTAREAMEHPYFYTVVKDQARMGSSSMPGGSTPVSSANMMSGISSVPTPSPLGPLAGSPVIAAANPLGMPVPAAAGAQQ
CK2, sequence (P67870 whole entry partner): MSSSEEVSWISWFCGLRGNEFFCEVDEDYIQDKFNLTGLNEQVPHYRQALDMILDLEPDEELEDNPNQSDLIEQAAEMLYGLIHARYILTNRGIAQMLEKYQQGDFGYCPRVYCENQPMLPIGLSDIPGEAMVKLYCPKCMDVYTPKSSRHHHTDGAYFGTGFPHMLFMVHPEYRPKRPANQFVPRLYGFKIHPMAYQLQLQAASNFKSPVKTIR

Broadly, the IC50 is the point on the concentration scale where inhibition reaches its midpoint. Consider `O=C(Nc1ccc(-c2nc3c(oc4ccc(Br)cc43)c(=O)[nH]2)c(Cl)c1)c1ccc(Br)cn1` [Compound 336, 5-bromo-N-[4-(8-bromo-4-oxo-3,4-dihydro[1]benzofuro[3,2-d]pyrimidin-2-yl)-3-chlorophenyl]pyridine-2-carboxamide], for which the IC50 (on CK2; in test [1]) was less than 10 µM throughout.

For `O=c1[nH]c(CN2CC[C@H](O)C2)nc2c1oc1ccc(NCc3ccc(F)cc3F)cc12` [Compound 465, 8-{[(2,4-difluorophenyl)methyl]amino}-2-{[(3S)-3-hydroxypyrrolidin-1-yl]methyl}[1]benzofuro[3,2-d]pyrimidin-4(3H)-one], the 50% inhibitory concentration (IC50) (at CK2; in test [1]) was less than 10 µM throughout.

In the case of `O=C(Nc1ccc(Cl)c(-c2nc3c(oc4ccc(Br)cc43)c(=O)[nH]2)c1)c1ccc(Cl)cn1` [Compound 340, N-[3-(8-bromo-4-oxo-3,4-dihydro[1]benzofuro[3,2-d]pyrimidin-2-yl)-4-chlorophenyl]-5-chloropyridine-2-carboxamide], the IC50 (at CK2; in test [1]) was less than 10 µM each time.

For the molecule `O=C(Nc1ccc(-c2nc3c(oc4ccc(Br)cc43)c(=O)[nH]2)c(Cl)c1)c1ccc(Cl)cn1` [Compound 339, N-[4-(8-bromo-4-oxo-3,4-dihydro[1]benzofuro[3,2-d]pyrimidin-2-yl)-3-chlorophenyl]-5-chloropyridine-2-carboxamide], the IC50 (on CK2; in test [1]) was less than 10 µM each time.

As for `CCN(CC)CC(=O)N1CCN(c2nc3c(oc4ccc(Br)cc43)c(=O)[nH]2)CC1` [Compound 245, 8-bromo-2-[4-(N,N-diethylglycyl)piperazin-1-yl][1]benzofuro[3,2-d]pyrimidin-4(3H)-one], the IC50 (at CK2; in test [1]) was less than 10 µM in each case.

Take `Cc1cc(NCC2CCNCC2)ccc1-c1nc2c(oc3ccc(Br)cc32)c(=O)[nH]1` [Compound 54, 8-bromo-2-{2-methyl-4-[(piperidin-4-ylmethyl)amino]phenyl}[1]benzofuro[3,2-d]pyrimidin-4(3H)-one]: the IC50 (at CK2; in test [1]) was less than 10 µM in each case.

Turning to `O=C(Nc1ccc(Cl)c(-c2nc3c(oc4ccc(Br)cc43)c(=O)[nH]2)c1)C1CCOC1` (centres unmarked) [Compound 361, N-[3-(8-bromo-4-oxo-3,4-dihydro[1]benzofuro[3,2-d]pyrimidin-2-yl)-4-chlorophenyl]tetrahydrofuran-3-carboxamide], the IC50 (at CK2; in test [1]) was less than 10 µM in each case.

On to `O=c1[nH]c(-c2cc(OC3CCNCC3)no2)nc2c1oc1ccc(Br)cc12` [Compound 299, 8-Bromo-2-[3-(piperidin-4-yloxy)isoxazol-5-yl][1]benzofuro[3,2-d]pyrimidin-4(3H)-one], for which the IC50 (on CK2; in test [1]) was less than 10 µM each time.

As for `O=C(Nc1ccc(Cl)c(-c2nc3c(oc4ccc(Br)cc43)c(=O)[nH]2)c1)c1ccnc(Cl)c1` [Compound 326, N-[3-(8-bromo-4-oxo-3,4-dihydro[1]benzofuro[3,2-d]pyrimidin-2-yl)-4-chlorophenyl]-2-chloropyridine-4-carboxamide], the half-maximal inhibitory concentration (IC50) (on CK2; in test [1]) was less than 10 µM each time.

Consider `O=c1[nH]c(-c2ccccc2F)nc2c1oc1ccc(Br)cc12` [Compound 58, 8-Bromo-2-(2-fluorophenyl)[1]benzofuro[3,2-d]pyrimidin-4(3H)-one], for which the IC50 (at CK2; in test [1]) was less than 10 µM throughout.

Consider `CN(C)c1ccc(-c2nc3c(oc4ccc(Br)cc43)c(=O)[nH]2)c(Cl)c1` [Compound 41, 8-bromo-2-[2-chloro-4-(dimethylamino)phenyl][1]benzofuro[3,2-d]pyrimidin-4(3H)-one], for which the IC50 (on CK2; in test [1]) was less than 10 µM throughout.

Consider `O=c1[nH]c(-c2ccccn2)nc2c1oc1ccc(Br)cc12` [Compound 57, 8-Bromo-2-pyridin-2-yl[1]benzofuro[3,2-d]pyrimidin-4(3H)-one], for which the IC50 (at CK2; in test [1]) was less than 10 µM each time.

Take `O=c1[nH]c(CNC2CCc3ccccc32)nc2c1oc1ccc(Br)cc12` (centres unmarked) [Compound 241, 8-bromo-2-[(2,3-dihydro-1H-inden-1-ylamino)methyl][1]benzofuro[3,2-d]pyrimidin-4(3H)-one]: the IC50 (on CK2; in test [1]) was less than 10 µM each time.

As to `O=c1[nH]c(CNCc2cccc(Cl)c2)nc2c1oc1ccc(Br)cc12` [Compound 256, 8-bromo-2-({[(3-chlorophenyl)methyl]amino}methyl)[1]benzofuro[3,2-d]pyrimidin-4(3H)-one], the 50% inhibitory concentration (IC50) (on CK2; in test [1]) was less than 10 µM each time.

In the case of `COc1cc2oc3c(=O)[nH]c(CN4CC[C@H](O)C4)nc3c2cc1Br` [Compound 436, 8-bromo-2-{[(3S)-3-hydroxypyrrolidin-1-yl]methyl}-7-(methyloxy)[1]benzofuro[3,2-d]pyrimidin-4(3H)-one], the IC50 (on CK2; in test [1]) was less than 10 µM each time.

Take `COc1cc(C(=O)Nc2ccc(-c3nc4c(oc5ccc(Br)cc54)c(=O)[nH]3)c(Cl)c2)ccn1` [Compound 335, N-[4-(8-bromo-4-oxo-3,4-dihydro[1]benzofuro[3,2-d]pyrimidin-2-yl)-3-chlorophenyl]-2-(methyloxy)pyridine-4-carboxamide]: the IC50 (on CK2; in test [1]) was less than 10 µM in each case.

Turning to `Cc1ccc(N2C[C@@H]3C[C@H]2CN3Cc2nc3c(oc4ccc(Br)cc43)c(=O)[nH]2)cc1` [Compound 192, 8-bromo-2-{[(1S,4S)-5-(4-methylphenyl)-2,5-diazabicyclo[2.2.1]hept-2-yl]methyl}[1]benzofuro[3,2-d]pyrimidin-4(3H)-one], the IC50 (on CK2; in test [1]) was less than 10 µM each time.

`O=c1[nH]c(-c2ccccc2Cl)nc2c1oc1ccc3ccccc3c12` [Compound 96, 10-(2-Chlorophenyl)naphtho[1′,2′:4,5]furo[3,2-d]pyrimidin-8(9H)-one]: the IC50 (at CK2; in test [1]) was less than 10 µM in each case.

`O=c1[nH]c(CN2CC[C@H](O)C2)nc2c1oc1ccc(NCc3cccc(C(F)(F)F)c3)cc12` [Compound 464, 2-{[(3S)-3-hydroxypyrrolidin-1-yl]methyl}-8-({[3-(trifluoromethyl)phenyl]methyl}amino)[1]benzofuro[3,2-d]pyrimidin-4(3H)-one]: the IC50 (at CK2; in test [1]) was less than 10 µM in each case.

`CN1CCN(c2ccc(NCc3nc4c(oc5ccc(Br)cc54)c(=O)[nH]3)cc2)CC1` [Compound 75, 8-bromo-2-({[4-(4-methylpiperazin-1-yl)phenyl]amino}methyl)[1]benzofuro[3,2-d]pyrimidin-4(3H)-one]: the IC50 (at CK2; in test [1]) was less than 10 µM throughout.

Regarding `COc1ccc(F)c(-c2nc3c(oc4ccc(Br)cc43)c(=O)[nH]2)c1` [Compound 67, 8-bromo-2-[2-fluoro-5-(methyloxy)phenyl][1]benzofuro[3,2-d]pyrimidin-4(3H)-one], the IC50 (at CK2; in test [1]) was less than 10 µM each time.

For the molecule `O=c1[nH]c(-c2ccccc2O)nc2c1oc1ccc(Br)cc12` [Compound 51, 8-bromo-2-(2-hydroxyphenyl)[1]benzofuro[3,2-d]pyrimidin-4(3H)-one], the IC50 (at CK2; in test [1]) was less than 10 µM each time.
